Results: patent US12448394B2, “Heterocyclic pyrazole derivatives as type III receptor tyrosine kinase inhibitors” (DEVELOPMENT CENTER FOR BIOTECHNOLOGY, priority 2019, dated 2025)

Experiments:
PDGFRα kinase = molecular target: T1, PDGFRα kinase (Homo sapiens, UniProt P16234); experiment: PDGFRα kinase assay (AlphaScreen); format: biochemical; conditions: read-out: Ranking of IC50 values, PDGFRα
T1 construct: purchased SignalChem
Method: Inhibition of PDGFRα kinase activity by a test compound disclosed herein was estimated by AlphaScreen (PerkinElmer). Standard assay conditions were 1.5 ng of recombinant PDGFRα kinase (SignalChem) with 6 ng Biotin-conjugated Poly-(Glu 4: Tyr 1) (Cisbio) in the assay buffer (10 μM ATP, 10 mM MOPs, pH 7.0, 0.21 mM EDTA, 0.5% glycerol, 1 mg/mL BSA, 0.01% 2-mercaptoethanol, 0.001% Brij35, 10 mM MgCl2) in a final volume of 25 μL. Reactions were incubated at 30° C. for 30 min and stopped by adding […] of 50 mM EDTA. Analysis of resulting product using an AlphaScreen kit and counted with Enspire Alpha (PerkinElmer). […] The IC50 values of inhibitors were determined after carrying out assays with each compound at serially diluted concentrations in duplication. The results were analyzed using linear regression software (GraphPad Prism 5; GraphPad Software Inc.)

[1] = tested on: THP-1 human acute monocytic leukemia cell with NRAS G12D mutation; experiment: THP-1 cell proliferation assay (counter screen); format: cell-based; conditions: Homo sapiens, THP-1 cells, 72 hours treatment, CellTiter96, read-out: anti-proliferation activity THP-1 NRAS N12D, IC50 ranking
Method: (§1) Inhibitions of cell growths by compounds were measured using CellTiter™-96 assay. The cytotoxicities of compounds of the invention were evaluated in cell line panels with different signaling pathway dependencies, including MV4-11 human acute myeloid leukemia cell with FLT3-ITD mutation, Molm-14 human acute myeloid leukemia cell with FLT3-ITD mutation, THP-1 human acute monocytic leukemia cell with NRAS G12D mutation, A375 melanoma cell with BRAF V600E mutation, and HCC827 NSCLC cell with EGFR exon 19 deletion mutation.
THP-1 cells are human acute monocytic leukemia cells with NRAS G12D mutation, which renders the cell growth independent of class III RTKs signaling. THP-1 cells (catalog #TIB-202) were obtained from the ATCC. Briefly, cells were grown in RPMI 1640 medium supplemented with 10% heat inactivated fetal bovine serum and 0.05 mM 2-mercaptoethanol and incubated at 37° C. in 5% CO2 atmosphere. Cells were allowed to expand until reaching saturation, at which point they were sub-cultured or harvested for assay use.
(§2) MV4-11, Molm-14, THP-1, A375, and HCC827 cells were seeded into 96-well plates at 6500, 25000, 5000, 2000 and 8000 cells/well, respectively, and incubated at 37° C., 5% CO2 overnight. Then, these seeded cells were treated with increasing concentrations of the test compounds and incubated for another 72 hours. At the end of the incubation, CellTiter96® AQueous One Solution Reagent (Promega, […]) was added and incubated for the additional 2˜4 hours. Cell viability was determined by measuring absorbance at 490 nm using EMax® microplate reader (Molecular Devices, San Jose, CA, USA).

[2] = tested on: MV4-11 human acute myeloid leukemia cell with FLT3-ITD mutation; experiment: MV4-11 cell proliferation assay (CellTiter 96); format: cell-based; conditions: Homo sapiens, MV4-11, 72 h, MV4-11 cells, 72 hours treatment, CellTiter96; read-out: anti-proliferation activity MV4-11 (FLT3-ITD), IC50 ranking
Method: as §1
The compounds disclosed herein were tested in MV4-11 cell proliferation assay to determine their cellular potencies against FLT3 signal pathway dependent cell growths. MV4-11 cells are human acute myeloid leukemia (AML) cells harboring ligand-independent FLT3-ITD activating mutation, which renders the abnormal proliferation of AML cells FLT3 signaling pathway dependent. Inhibition of FLT3 kinase activity will result in reduced growths and/or cell deaths. MV4-11 cells (catalog #CRL-9591) were obtained from the American Type Culture Collection (ATCC, Manassas, VA). Briefly, cells were grown in IMDM medium supplemented with 10% heat inactivated fetal bovine serum and incubated at 37° C. in 5% CO2 atmosphere. Cells were allowed to expand until reaching saturation, at which point they were sub-cultured or harvested for assay use.
as §2

[3] = tested on: A375 melanoma cell with BRAF V600E mutation; experiment: A375 cell proliferation assay (counter screen); format: cell-based, human; conditions: Homo sapiens, A-375, A375 cells, 72 hours treatment, CellTiter96, read-out: anti-proliferation activity A375 BRAF V600E, IC50 ranking
Method: as §1
A375 cells are melanoma cells encoding BRFA V600E mutation, which renders the cell growth dependent on BRAF signaling instead of class III RTKs signaling. A375 cells (catalog #CRL-1619) were obtained from the ATCC. Briefly, cells were cultured in DMEM containing 10% FBS and incubated at 37° C. in 5% CO2 atmosphere. Cells were allowed to expand until reaching saturation, at which point they were sub-cultured or harvested for assay use.
as §2

[4] = tested on: phosphorylation of FLT3 and its down-stream effector STAT5; experiment: Western blotting of p-FLT3 and p-STAT5 in MV4-11 cells; format: cell-based; conditions: Homo sapiens; at 30 nM treatment, 3 hours, FLT3-ITD positive MV4-11 leukemia cells; read-out: inhibition activity against phosphorylation of FLT3 and its down-stream effector STAT5
Method: The potent compounds of formula (I) in EXAMPLE 2 were evaluated, by western blotting assay, for their cellular potencies against phosphorylation of FLT3 and its down-stream effector STAT5 in MV4-11 leukemia cell line with constitutive activation of FLT3 signaling. For western blotting experiments, MV4-11 cells were cultured in IMDM medium containing 0.1% FBS overnight. On the assay day, three million cells were treated with or without compounds for 3 hours in 15 mL tubes. Then, the whole cell lysates were harvested, following extraction by adding 2×SDS Sample Buffer and boiling on hot plate at 105° C. for 15 minutes. The resulting cell lysates were separated by SDS-PAGE electrophoresis and transferred to PVDF membrane. Protein expression was detected using immunoblot with corresponding primary antibody and secondary antibody following the standard procedures. Antibody against p-FLT3 (Tyr-591), anti-rabbit IgG HRP-linked secondary antibody, and anti-mouse IgG HRP-linked secondary antibody were purchased from Cell Signaling Technology. Antibody against p-STAT5 (Tyr-694) was purchased from BD biosciences. Antibody against actin was purchased from R&D system. […] Band intensities of western blot were also quantified by ChemiDoc™ MP Imaging System. Relative intensities of bandscorresponding to drug treatments at a single concentration (30 nM) were compared to the DMSO control group. The percentage (%) inhibition at each drug concentration was calculated using the formula: Percentage(%)inhibition=(1−Relative intensity)×100.

T1 sequence (P16234 24-1089): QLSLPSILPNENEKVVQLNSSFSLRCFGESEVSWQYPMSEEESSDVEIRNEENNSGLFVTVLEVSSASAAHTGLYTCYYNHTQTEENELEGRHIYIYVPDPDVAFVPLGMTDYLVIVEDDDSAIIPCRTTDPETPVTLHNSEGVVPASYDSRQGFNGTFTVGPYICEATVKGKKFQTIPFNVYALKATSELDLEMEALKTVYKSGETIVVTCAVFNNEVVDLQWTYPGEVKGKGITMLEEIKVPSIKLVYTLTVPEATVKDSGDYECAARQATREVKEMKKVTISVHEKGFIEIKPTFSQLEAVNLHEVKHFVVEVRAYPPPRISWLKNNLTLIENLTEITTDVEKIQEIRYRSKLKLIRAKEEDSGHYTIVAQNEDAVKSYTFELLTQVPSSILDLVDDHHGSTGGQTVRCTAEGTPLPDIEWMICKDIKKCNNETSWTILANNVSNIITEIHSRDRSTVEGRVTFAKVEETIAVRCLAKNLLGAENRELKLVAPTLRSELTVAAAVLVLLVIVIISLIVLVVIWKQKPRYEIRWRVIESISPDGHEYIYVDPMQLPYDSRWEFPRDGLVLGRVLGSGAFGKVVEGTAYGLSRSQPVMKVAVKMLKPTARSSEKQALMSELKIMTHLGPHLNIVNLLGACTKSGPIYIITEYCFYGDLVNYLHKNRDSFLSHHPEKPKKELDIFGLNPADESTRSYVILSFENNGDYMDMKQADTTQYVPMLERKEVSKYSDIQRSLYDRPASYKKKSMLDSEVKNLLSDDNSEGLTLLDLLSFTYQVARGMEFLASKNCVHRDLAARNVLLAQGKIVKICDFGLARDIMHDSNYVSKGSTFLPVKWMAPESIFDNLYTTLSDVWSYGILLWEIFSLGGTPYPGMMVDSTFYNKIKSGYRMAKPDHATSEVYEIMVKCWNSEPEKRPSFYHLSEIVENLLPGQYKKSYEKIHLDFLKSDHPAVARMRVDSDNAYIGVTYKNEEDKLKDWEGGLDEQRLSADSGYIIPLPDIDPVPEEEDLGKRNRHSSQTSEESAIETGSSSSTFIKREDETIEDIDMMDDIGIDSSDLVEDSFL

| IC50 (PDGFRα kinase) | IC50 [2] | SMILES | IC50 [1] | IC50 [3] | inhibition at 0.03 µM [4] |
| --- | --- | --- | --- | --- | --- |
| 0.01 to 0.03 µM | 0.03 to 0.1 µM | CN(C)c1ccc(-c2cc3c(s2)Cc2c(-c4ccc5cnn(C)c5c4)n[nH]c2-3)cn1 [Compound 5, N,N-dimethyl-5-(3-(1-methyl-1H-indazol-6-yl)-1,4-dihydrothieno [2′,3′:4,5]cyclopenta[1,2-c]pyrazol-6-yl)pyridin-2-amine] | > 10 µM | > 10 µM | – |
| 0.01 to 0.03 µM | < 0.03 µM | Cc1ccc(-c2cc3c(s2)Cc2c(-c4ccc5cnn(C)c5c4)n[nH]c2-3)cn1 [Compound 11, 3-(1-methyl-1H-indazol-6-yl)-6-(6-methylpyridin-3-yl)-1,4-dihydrothieno [2′,3′:4,5]cyclopenta[1,2-c] pyrazole] | > 10 µM | > 10 µM | – |
| 0.01 to 0.03 µM | 0.1 to 0.3 µM | Cc1cc(-c2cc3c(s2)Cc2c(-c4ccc5cnn(C)c5c4)n[nH]c2-3)ccc1CN1CCOCC1 [Compound 26, 4-(2-methyl-4-(3-(1-methyl-1H-indazol-6-yl)-1,4-dihydrothieno[2′,3′:4,5]cyclopenta[1,2-c]pyrazol-6-yl)benzyl)morpholine] | > 10 µM | > 10 µM | – |
| 0.03 to 0.1 µM | 0.1 to 0.3 µM | CC(C)Cn1ncc2ccc(-c3n[nH]c4c3Cc3sc(-c5ccc(CN6CCOCC6)cc5)cc3-4)cc21 [Compound 35, 4-(4-(3-(1-isobutyl-1H-indazol-6-yl)-1,4-dihydro-thieno[2′,3′:4,5]cyclopenta [1,2-c]pyrazol-6-yl)benzyl)morpholine] | 1 to 10 µM | > 10 µM | – |
| 0.03 to 0.1 µM | 0.1 to 0.3 µM | CN(c1ccc(-c2cc3c(s2)Cc2c(-c4ccc5cnn(C)c5c4)n[nH]c2-3)cc1)C1CCOCC1 [Compound 73, N-methyl-N-(4-(3-(1-methyl-1H-indazol-6-yl)-1,4-dihydrothieno [2′,3′:4,5]cyclopenta [1,2-c]pyrazol-6-yl)phenyl)tetrahydro-2H-pyran-4-amine] | > 10 µM | > 10 µM | – |
| 0.1 to 0.3 µM | 0.3 to 1 µM | Cn1ncc2ccc(-c3n[nH]c4c3Cc3sc(-c5ccc(C=C6CCOCC6)cc5)cc3-4)cc21 [Compound 76, 3-(1-methyl-1H-indazol-6-yl)-6-(4-((tetrahydro-4H-pyran-4-ylidene)methyl)phenyl)-1,4-dihydrothieno[2′,3′:4,5] cyclopenta[1,2-c]pyrazole] | > 10 µM | > 10 µM | – |
| 0.03 to 0.1 µM | 0.03 to 0.1 µM | Cn1ncc2ccc(-c3n[nH]c4c3Cc3sc(-c5ccc(CN6CC(F)(F)C6)cc5)cc3-4)cc21 [Compound 104, 6-(4-((3,3-difluoroazeti-din-1-yl)methyl)phenyl)-3-(1-methyl-1H-indazol-6-yl)-1,4-dihydrothieno [2′,3′:4,5]cyclopenta [1,2-c]pyrazole] | 1 to 10 µM | 1 to 10 µM | – |

The next lines start with the molecule.

| SMILES | IC50 (PDGFRα kinase) | IC50 [2] | IC50 [1] | IC50 [3] | inhibition at 0.03 µM [4] |
| --- | --- | --- | --- | --- | --- |
| c1cc(-c2cc3c(s2)Cc2c(-c4ccc5cn[nH]c5c4)n[nH]c2-3)ccc1CN1CCOCC1 [Compound 6, 4-(4-(3-(1H-indazol-6-yl)-1,4-dihydrothieno[2′,3′:4,5]cyclopenta[1,2-c]pyrazol-6-yl)benzyl)morpholine] | 0.001 to 0.01 µM | < 0.03 µM | > 10 µM | > 10 µM | > 50% |
| CN1CCN(Cc2cccc(-c3cc4c(s3)Cc3c(-c5ccc6cnn(C)c6c5)n[nH]c3-4)c2)CC1 [Compound 14, 3-(1-methyl-1H-indazol-6-yl)-6-(3-((4-methylpiperazin-1-yl)methyl)phenyl)-1,4-dihydrothieno [2′,3′:4,5]cyclopenta[1,2-c] pyrazole] | 0.01 to 0.03 µM | < 0.03 µM | > 10 µM | 1 to 10 µM | – |
| Cn1ncc2ccc(-c3n[nH]c4c3Cc3sc(-c5ccc(CN6CCOCC6)c(C(F)(F)F)c5)cc3-4)cc21 [Compound 27, 4-(4-(3-(1-methyl-1H-indazol-6-yl)-1,4-dihydrothieno[2′,3′:4,5]cyclopenta[1,2-c]pyrazol-6-yl)-2-(trifluoromethyl)benzyl)morpholine] | 0.1 to 0.3 µM | 0.3 to 1 µM | > 10 µM | > 10 µM | – |
| Cn1ncc2ccc(-c3n[nH]c4c3Cc3sc(-c5ccc(CN6CCC(F)(F)C6)cc5)cc3-4)cc21 [Compound 67, 6-(4-((3,3-difluoro-pyrrolidin-1-yl)methyl)phenyl)-3-(1-methyl-1H-indazol-6-yl)-1,4-dihydro-thieno[2′,3′:4,5]cyclopenta [1,2-c]pyrazole] | 0.01 to 0.03 µM | 0.1 to 0.3 µM | > 10 µM | > 10 µM | – |
| Cn1ncc2ccc(-c3n[nH]c4c3Cc3sc(-c5cccc(OCCN6CCOCC6)c5)cc3-4)cc21 [Compound 70, 4-(2-(3-(3-(1-methyl-1H-indazol-6-yl)-1,4-dihydro-thieno[2′,3′:4,5]cyclopenta [1,2-c]pyrazol-6-yl)phenoxy)ethyl)morpholine] | 0.01 to 0.03 µM | 0.03 to 0.1 µM | > 10 µM | > 10 µM | – |
| Cn1ncc2ccc(-c3n[nH]c4c3Cc3sc(-c5ccc(CC6CCOCC6)cc5)cc3-4)cc21 [Compound 77, 3-(1-methyl-1H-indazol-6-yl)-6-(4-((tetrahydro-2H-pyran-4-yl)methyl)phenyl)-1,4-dihydrothieno [2′,3′:4,5]cyclopenta [1,2-c]pyrazole] | 0.03 to 0.1 µM | 0.1 to 0.3 µM | 1 to 10 µM | 1 to 10 µM | – |
| Cn1ncc2ccc(-c3n[nH]c4c3Cc3sc(-c5ccc(CN6CCOCC6)cn5)cc3-4)cc21 [Compound 95, 4-((6-(3-(1-methyl-1H-indazol-6-yl)-1,4-dihydro-thieno[2′,3′:4,5]cyclopenta [1,2-c]pyrazol-6-yl)pyridin-3-yl)methyl) morpholine] | 0.001 to 0.01 µM | – | – | – | > 50% |
